Series [1] concerns HeLa cells. Put plainly: MTT assay, HeLa. The class given is cell-based. The conditions noted are these: 72 h. Here is the method: MTT Proliferation Assay. HeLa, Jurkat-Lucia, or H441 cells were seeded into a 96-well microplate (5000 cells per well) in full growth media and incubated at 37° C. overnight. A serial dilution of each compound was prepared in DPBS and then added to each well. The treated cells were incubated at 37° C. with 5% CO2 for 72 h. Following compound treatment, 10 μL of MTT stock solution was added to each well. After an additional 4 h at 37° C., 100 μL of SDS-HCl solubilizing solution was added to each well and the plate was returned to the incubator overnight at 37° C. A Tecan Infinite M1000 Pro microplate reader was used the following morning to measure the absorbance of the formazan product at 565 nm.
Potential cytotoxicity of CNI101 (SEQ ID NO: 206) and CNI103 (SEQ ID NO: 208) was tested on HeLa cells by the MTT proliferation assay. HeLa cells were seeded into a 96-well microplate (5000 cells per well) in full growth media and incubated at 37° C. overnight. A serial dilution of each inhibitor was prepared in DPBS and then added to each well. The treated cells were incubated at 37° C. with 5% CO2 for 72 h. Following compound treatment, 10 μL of MTT stock solution was added to each well. After an additional 4 h at 37° C., 100 μL of SDS-HCl solubilizing solution was added to each well and the plate was returned to the incubator overnight at 37° C. A Tecan Infinite M1000 Pro microplate reader was used the following morning to measure the absorbance of the formazan product at 565 nm.
On the technique in general: Tetrazolium assays rely on reduction of a dye to a coloured formazan, in cell work by metabolically active cells.

For series [2], the system named is HeLa cells. Put plainly: Cytosolic delivery assay (NF-labeled peptides, flow cytometry). Format: cell-based. The conditions noted are these: 5 μM, 2 h, relative to CPP9 = 100%. How it is done:
The NF fluorescence intensity of the treated cells therefore reflects the amount of the peptide that has reached the cytosol and nucleus of the cells. […] Live-cell confocal microscopic analysis confirmed that CNI93 reached the interior of HeLa cells.
Cytosolic Delivery Assay. HeLa cells maintained in DMEM supplemented with 10% FBS and 1% penicillin/streptomycin were seeded into 12-well plates (1.5×10^5 cells per well) and incubated overnight at 37° C., 5% CO2. The following day, the cells were washed with DPBS and incubated with 5 μM NF-labeled peptides dissolved in DMEM containing 10% FBS, 1% penicllin/streptomycin for 2 h at 37° C. in the presence of 5% CO2. After that, the cells were washed with DPBS and harvested from the plate by treatment with 0.25% trypsin for 5 min. Cells were centrifuged at 300×RCF, washed twice with cold DPBS, and resuspended in cold DPBS for flow cytometry analysis on a BD LSR II flow cytometer followed by data analysis and gating using Flowjo. Calculation of cytosolic uptake efficiencies was carried out as previously described by Qian, Z., et al., Discovery and Mechanism of Highly Efficient Cyclic Cell-Penetrating Peptides. Biochemistry 2016, 55, 2601-2612.

Molecules are shown by their SMILES. Positions of bridges follow the written chain, without caps; N, C: chain ends. Non-standard residues stand in square brackets, D forms with d. Residues, ends and D or L forms follow the SMILES beside them. Chains are numbered I, II in the order given. *: point of attachment. Benzoyl(2,3-Cl2) = O=C(c1cccc(Cl)c1Cl)*; 2Nal = N[C@@H](Cc1ccc2ccccc2c1)C(=O)O; Tle = CC(C)(C)[C@H](N)C(=O)O; βAla = NCCC(=O)O

For `CC[C@H](C)[C@H](NC(=O)[C@@H](NC(=O)c1cccc(Cl)c1Cl)C(C)(C)C)C(=O)N[C@H](C(=O)N[C@H](C(=O)N[C@H](C(=O)N[C@@H](CCC(N)=O)C(=O)N[C@@H](Cc1c[nH]cn1)C(=O)N[C@H](CC(C)C)C(=O)N[C@@H](CO)C(=O)NCCC(=O)N[C@@H](CCCCNC(=O)CC[C@@H]1NC(=O)[C@@H](CCCNC(=N)N)NC(=O)[C@H](CCCNC(=N)N)NC(=O)[C@@H](CCCNC(=N)N)NC(=O)[C@H](CCCNC(=N)N)NC(=O)[C@H](Cc2ccc3ccccc3c2)NC(=O)[C@@H](Cc2ccccc2)NC1=O)C(N)=O)[C@@H](C)O)[C@@H](C)CC)C(C)(C)C` [CNI93] (I: {Benzoyl(2,3-Cl2)}-[Tle]I[Tle]ITQH[dL]S[βAla]K-NH2 / II: cyclo([2Nal]R[dR]R[dR]E[dF]); amide I:11-II:6 (inferred); ring closure inferred), the cytotoxicity result in the series with HeLa cells [1] (25 μM) was “No significant cytotoxicity”. For the same compound, the cell viability entry with HeLa cells [1] (50 μM) is listed as “Reduction in cell viability”. In addition, the “relative cytosolic delivery efficiency” value with HeLa cells [2] is 109%.

The values above are taken from patent US12329799B2, “Peptidyl inhibitors of calcineurin-NFAT interaction” (Ohio State Innovation Foundation, priority 2018, dated 2025).
